Results reported in PMC7251097, “Aspartate/asparagine-β-hydroxylase: a high-throughput mass spectrometric assay for discovery of small molecule inhibitors” (Scientific Reports, 2020).
Counter-ions that a name gives are not always drawn. Like-named read-outs stand apart in the source and are kept apart here.

Molecular target: T1, His6-AspH315–758 (human aspartate/asparagine-β-hydroxylase, AspH) (Homo sapiens, UniProt Q12797)
T1 construct: N-Terminally His6-tagged human AspH315–758 (His6-AspH315–758) was produced in E. coli BL21 (DE3) cells; made in house; host or cells: E. coli BL21 (DE3), pET-28a(+) vector
T1 sequence (Q12797 315-758): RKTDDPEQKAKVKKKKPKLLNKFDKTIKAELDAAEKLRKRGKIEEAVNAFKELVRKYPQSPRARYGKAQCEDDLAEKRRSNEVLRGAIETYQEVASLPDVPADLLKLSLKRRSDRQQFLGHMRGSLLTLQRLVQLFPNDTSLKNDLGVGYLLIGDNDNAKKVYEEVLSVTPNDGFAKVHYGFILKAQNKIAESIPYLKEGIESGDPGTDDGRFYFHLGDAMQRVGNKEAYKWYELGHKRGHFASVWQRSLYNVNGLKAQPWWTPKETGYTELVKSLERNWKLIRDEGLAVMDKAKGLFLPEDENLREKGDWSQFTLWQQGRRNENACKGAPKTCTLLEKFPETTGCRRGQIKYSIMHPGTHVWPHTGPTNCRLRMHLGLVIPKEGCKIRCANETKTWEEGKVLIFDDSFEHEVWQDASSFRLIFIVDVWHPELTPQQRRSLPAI
Experiment: SPE-MS AspH inhibition assay (LOPAC screen at fixed 20 μM and IC50 dose-response), hydroxylation of cyclic peptide hFX-CP101–119
Format: biochemical
Details: for Plate 5 (% inhibition) / Plate 5 (% conversion): plate 5 (Pfitzer), test compounds at fixed 20 μM; for Plate 5 (% conversion): mean conversion DMSO 32.88

[1] = LOPAC Plate 4, compound at 20 uM, substrate conversion
[2] = LOPAC compound at fixed 20 uM, plate 1, normalised to DMSO and 2,4-PDCA controls
[3] = LOPAC compound at fixed 20 uM, substrate conversion, plate 1
[4] = LOPAC compound at 20uM, plate 2, conversion of substrate peptide
[5] = LOPAC compound at 20uM, plate 2, normalised to DMSO and 2,4-PDCA controls
[6] = LOPAC compound at 20uM, plate 2, normalised to DMSO and 2,4-PDCA controls, read-out: Plate 2 (% inhibition)
[7] = LOPAC compound at 20uM, plate 3, conversion of substrate peptide

O=c1c(O)c(-c2cc(O)c(O)c(O)c2)oc2cc(O)cc(O)c12 [Myricetin, reference compound]
Plate 3 (% conversion): 2.65%
inhibition at 20 µM (AspH activity, fixed compound concentration 20 μM, initial LOPAC screen, 0.5%v/v DMSO, read-out: Inhibition at 20 µM [%]): 99.4%

CCNc1nc2c(ncn2[C@H]2C[C@H](O)[C@@H](CO)O2)c(=O)[nH]1 [N2-Ethyl-2-deoxyguanosine]
% conversion [1]: 26.09%

Nc1ccc(CCNc2ncnc3c2ncn3[C@@H]2O[C@H](CO)[C@@H](O)[C@H]2O)cc1 [N6-2-(4-Aminophenyl)ethyladenosine]
Plate 1 (% inhibition) [2]: -0.97%
Plate 1 (% conversion) [3]: 36.20%

OC[C@H]1O[C@@H](n2cnc3c(NC4CCCC4)ncnc32)[C@H](O)[C@@H]1O [N6-Cyclopentyladenosine]
Plate 1 (% inhibition) [2]: -4.07%

CN(C)C(=O)N=NC(=O)N(C)C [N,N,N,N-Tetramethylazodicarboxamide]
Plate 2 (% conversion) [4]: 38.74%
Plate 2 (% inhibition) [5]: -8.32%

Nc1ccc(N2C(=O)c3ccccc3C2=O)c(Cl)c1 [N-(4-Amino-2-chlorophenyl)phthalimide]
Plate 1 (% inhibition) [2]: -9.54%
Plate 1 (% conversion) [3]: 39.07%

CC(=O)NCCc1c[nH]c2ccc(O)cc12 [N-Acetyl-5-hydroxytryptamine]
Plate 1 (% conversion): 34.66%
Plate 1 (% inhibition): 3.61%

CC(=O)N[C@@H](CS)C(=O)O [N-Acetyl-L-Cysteine]
Plate 1 (% inhibition) [2]: 6.30%
Plate 1 (% conversion) [3]: 33.76%

CCN(CC)CCNC(=O)c1ccc(NC(C)=O)cc1.Cl [N-Acetylprocainamide hydrochloride]
Plate 1 (% inhibition) [2]: 3.70%
Plate 1 (% conversion) [3]: 34.63%

CC(=O)NCCc1c[nH]c2ccccc12 [N-Acetyltryptamine]
Plate 1 (% inhibition) [2]: -6.27%
Plate 1 (% conversion) [3]: 37.98%

CC(=O)NBr [N-Bromoacetamide]
Plate 1 (% inhibition) [2]: 71.66%
Plate 1 (% conversion) [3]: 11.81%

Clc1ccc2c(c1)N=C(N1CCNCC1)c1ccccc1N2 [N-Desmethylclozapine]
inhibition at 20 µM [6]: -3.91%

CN1C[C@H](O)[C@@H](O)[C@H](O)[C@H]1CO [N-Methyl-1-deoxynojirimycin]
Plate 2 (% conversion) [4]: 34.79%
Plate 2 (% inhibition) [5]: 3.48%

CNC(=O)c1cc2c(cn1)[nH]c1ccccc12 [N-Methyl-beta-carboline-3-carboxamide]
Plate 2 (% conversion) [4]: 36.80%
Plate 2 (% inhibition) [5]: -2.54%

CNCCc1ccc(O)c(O)c1.Cl [N-Methyldopamine hydrochloride]
Plate 2 (% conversion): 9.52%
Plate 2 (% inhibition) [5]: 78.96%

CNCCc1cnc(CCC(c2ccccc2)c2ccccc2)[nH]1.O=C(O)C(=O)O.O=C(O)C(=O)O [N-Methylhistaprodifen dioxalate salt]
Plate 2 (% conversion) [4]: 8.76%
Plate 2 (% inhibition) [5]: 81.23%

CCCCCCCC/C=C\CCCCCCCC(=O)NCCc1ccc(O)c(O)c1 [N-Oleoyldopamine]
% inhibition (LOPAC Plate 4, compound at 20 uM): 94.15%
% conversion [1]: 4.34%

O=C(O)c1ccccc1Nc1ccccc1 [N-Phenylanthranilic acid]
Plate 1 (% inhibition) [2]: 20.57%
Plate 1 (% conversion) [3]: 28.96%

NS(=O)(=O)c1cccc2c1c([N+](=O)[O-])cc1nc([O-])c([O-])nc12.[Na+].[Na+] [NBQX disodium]
Plate 3 (% conversion) [7]: 7.99%

O=C(O)/C=C1\CCCc2ccccc2C1O (centres unmarked) [NCS-382]
Plate 3 (% conversion) [7]: 38.57%

O=C(Nc1cccc(C(=O)Nc2ccc(S(=O)(=O)O)c3cc(S(=O)(=O)O)cc(S(=O)(=O)O)c23)c1)Nc1cccc(C(=O)Nc2ccc(S(=O)(=O)O)c3cc(S(=O)(=O)O)cc(S(=O)(=O)O)c23)c1 [NF 023, reference compound]
Plate 3 (% conversion) [7]: 4.28%

[H]/N=C(/NC)NCCC[C@H](N)C(=O)O [NG-Monomethyl-L-arginine acetate]
Plate 3 (% conversion) [7]: 38.37%

N=C(NCCC[C@H](N)C(=O)O)N[N+](=O)[O-] [NG-Nitro-L-arginine]
Plate 3 (% conversion) [7]: 40.79%

CC(C)[C@H]1c2ccc(F)cc2CC[C@@]1(CCN(C)CCCc1nc2ccccc2[nH]1)OC(=O)C1CC1 [NNC 55-0396]
Plate 3 (% conversion) [7]: 58.37%

O=C(O)C(=O)N[C@H](Cc1ccccc1)C(=O)O [NOFD, N-oxalyl-D-phenylalanine, reference compound]
IC50 [μM] (50 nM His6-AspH315–758, 1.0 μM hFX-CP101–119, 3 μM 2OG, 2 μM Fe(II), 50 mM HEPES pH 7.5, 20 °C, mean ± SD, n = 2 (2,4-PDCA n = 10)): weak
IC50 (50 nM His6-AspH315–758, 1.0 μM hFX-CP101–119, 3 μM 2OG, 2 μM Fe(II), 50 mM HEPES pH 7.5, 20 °C, mean ± SD, n = 2 (2,4-PDCA n = 10), read-out: IC50): 15.5 ± 3.13 µM

O=C(Nc1cc(C(F)(F)F)cc(C(F)(F)F)c1)Nc1c(Br)cc(Br)cc1-c1nn[nH]n1 [NS5806]
Plate 2 (% conversion) [4]: 28.28%
Plate 2 (% inhibition) [5]: 22.93%

Cl.c1ccc2c(c1)CCC[C@H]2Nc1nc2ccccc2[nH]1 [NS8593 hydrochloride]
Plate 2 (% conversion) [4]: 39.37%
Plate 2 (% inhibition) [5]: -10.19%

O=c1onc2n1-c1cc(Br)ccc1OC2 [NS 2028]
Plate 3 (% conversion) [7]: 35.06%

O=c1[nH]c2cc(C(F)(F)F)ccc2n1-c1cc(C(F)(F)F)ccc1O [NS-1619]
Plate 3 (% conversion) [7]: 36.56%

O=C1C(SCCO)=C(SCCO)C(=O)c2ccccc21 [NSC 95397]
Plate 2 (% conversion): 23.59%
Plate 2 (% inhibition) (20 µM): 36.92%

CN(C)C(N)=NCCC[C@H](N)C(=O)O.Cl [N^G,N^G-Dimethylarginine hydrochloride]
Plate 2 (% conversion) [4]: 37.98%
Plate 2 (% inhibition) [5]: -6.05%

COc1ccc2c(c1)CCC(c1ccccc1)=C2c1ccc(OCCN2CCCC2)cc1 [Nafoxidine]
Plate 5 (% inhibition): -70.28%
Plate 5 (% conversion): 60.23%

CCn1cc(C(=O)[O-])c(=O)c2ccc(C)nc21.[Na+] [Nalidixic acid sodium]
Plate 3 (% conversion) [7]: 26.41%

C=CCN1CC[C@]23c4c5ccc(O)c4O[C@H]2C(=O)CC[C@@]3(O)[C@H]1C5 [Naloxone hydrochloride]
Plate 3 (% conversion): 40.30%

O=C1CC[C@@]2(O)[C@H]3Cc4ccc(O)c5c4[C@@]2(CCN3CC2CC2)[C@H]1O5 [Naltrexone hydrochloride]
Plate 3 (% conversion): 34.83%

c1ccc2c(CC3=NCCN3)cccc2c1 [Naphazoline hydrochloride]
Plate 3 (% conversion) [7]: 38.59%

CNS(=O)(=O)CCc1ccc2[nH]cc(C3CCN(C)CC3)c2c1 [Naratriptan hydrochloride]
Plate 2 (% conversion) [4]: 39.49%
inhibition at 20 µM [6]: -10.6%

Cc1cccc(C)c1NC(=O)CN1CCCC1=O [Nefiracetam]
Plate 2 (% conversion): 34.89%
inhibition at 20 µM (read-out: Plate 2 (% inhibition)): 3.19%

CS(=O)(=O)O.Cc1c(O)cccc1C(=O)N[C@@H](CSc1ccccc1)[C@H](O)CN1C[C@H]2CCCC[C@H]2C[C@H]1C(=O)NC(C)(C)C.O [Nelfinavir mesylate hydrate]
Plate 2 (% conversion) [4]: 32.94%
Plate 2 (% inhibition) [5]: 9.02%

Cc1c(O)cccc1C(=O)N[C@@H](CSc1ccccc1)[C@H](O)CN1C[C@H]2CCCC[C@H]2C[C@H]1C(=O)NC(C)(C)C [Nelfinavir]
Plate 5 (% inhibition): 38.58%
Plate 5 (% conversion): 23.19%

CCOC(=O)C1=C(C)NC(C)=C(C(=O)OCC)C1c1c(F)c(F)c(F)c(F)c1F [Nemadipine-A]
Plate 3 (% conversion) [7]: 41.91%

CN(C)C(=O)Oc1cccc([N+](C)(C)C)c1 [Neostigmine bromide]
Plate 3 (% conversion): 40.63%

COC(=O)C1=C(C)NC(C)=C(C(=O)OCCN(C)Cc2ccccc2)C1c1cccc([N+](=O)[O-])c1 (centres unmarked) [Nicardipine hydrochloride]
Plate 3 (% conversion) [7]: 44.76%

COC(=O)C1=C(C)NC(C)=C(C(=O)OC)C1c1ccccc1[N+](=O)[O-] [Nifedipine]
Plate 3 (% conversion): 39.50%

O=C(O)c1cccnc1Nc1cccc(C(F)(F)F)c1 [Niflumic acid]
Plate 3 (% conversion) [7]: 32.98%

COCCOC(=O)C1=C(C)NC(C)=C(C(=O)OC(C)C)C1c1cccc([N+](=O)[O-])c1 (centres unmarked) [Nimodipine]
Plate 3 (% conversion) [7]: 43.84%

Cc1ncc(CNC(=O)N(CCCl)N=O)c(N)n1 [Nimustine hydrochloride]
Plate 3 (% conversion): 38.40%

CNCCC(Oc1ccccc1OC)c1ccccc1 (centres unmarked) [Nisoxetine hydrochloride]
Plate 3 (% conversion): 39.53%

CCOC(=O)C1=C(C)NC(C)=C(C(=O)OC)C1c1cccc([N+](=O)[O-])c1 (centres unmarked) [Nitrendipine]
Plate 3 (% conversion) [7]: 38.78%

COC(=O)Nc1nc2ccc(C(=O)c3cccs3)cc2[nH]1 [Nocodazole]
Plate 3 (% conversion): 40.67%

O=C1OC(=O)[C@H]2[C@@H]1[C@@H]1CC[C@H]2O1 [Norcantharidin]
Plate 3 (% conversion): 35.60%

CC(Cc1ccc(O)c(O)c1)C(C)Cc1ccc(O)c(O)c1 (centres unmarked) [Nordihydroguaiaretic acid, reference compound]
Inhibition at 20 µM [%] (AspH activity, fixed compound concentration 20 μM, initial LOPAC screen, 0.5%v/v DMSO): 98.9%
